Results as given in PubChem BioAssay (NCI).
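96-well plates; 48 h exposure; 5 concentrations. Endpoints by linear interpolation between flanking doses. Not reached: highest tested concentration assigned. At the TGI there is no net growth.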

Legend:
Test in all cases: NCI anticancer screen, dose series, 48 h
786-0 renal = system: 786-0 renal
A498 renal = system: A498 renal
A549 NSCLC = system: A549 NSCLC
ACHN renal = system: ACHN renal
BT-549 breast = system: BT-549 breast
CAKI-1 renal = system: CAKI-1 renal
COLO 205 colon = system: COLO 205 colon
DU-145 prostate = system: DU-145 prostate
EKVX NSCLC = system: EKVX NSCLC
HCT-116 colon = system: HCT-116 colon
HCT-15 colon = system: HCT-15 colon
HL-60(TB) leukemia = system: HL-60(TB) leukemia
HOP-62 NSCLC = system: HOP-62 NSCLC
HOP-92 NSCLC = system: HOP-92 NSCLC
HS 578T breast = system: HS 578T breast
HT29 colon = system: HT29 colon
IGROV1 ovarian = system: IGROV1 ovarian
K-562 leukemia = system: K-562 leukemia
KM12 colon = system: KM12 colon
LOX IMVI melanoma = system: LOX IMVI melanoma
M14 melanoma = system: M14 melanoma
MALME-3M melanoma = system: MALME-3M melanoma
MCF7 breast = system: MCF7 breast
MDA-MB-231 breast = system: MDA-MB-231 breast
MDA-MB-435 = system: MDA-MB-435
MDA-N = system: MDA-N
MOLT-4 leukemia = system: MOLT-4 leukemia
NCI-H226 lung = system: NCI-H226 lung
NCI-H23 lung = system: NCI-H23 lung
NCI-H460 lung = system: NCI-H460 lung
NCI-H522 lung = system: NCI-H522 lung
NCI/ADR-RES ovarian = system: NCI/ADR-RES ovarian
OVCAR-3 ovarian = system: OVCAR-3 ovarian
OVCAR-4 ovarian = system: OVCAR-4 ovarian
OVCAR-5 ovarian = system: OVCAR-5 ovarian
OVCAR-8 ovarian = system: OVCAR-8 ovarian
PC-3 prostate = system: PC-3 prostate
RPMI-8226 leukemia = system: RPMI-8226 leukemia
RXF 393 renal = system: RXF 393 renal
SF-268 CNS = system: SF-268 CNS
SF-295 CNS = system: SF-295 CNS
SF-539 CNS = system: SF-539 CNS
SK-MEL-2 melanoma = system: SK-MEL-2 melanoma
SK-MEL-28 melanoma = system: SK-MEL-28 melanoma
SK-MEL-5 melanoma = system: SK-MEL-5 melanoma
SK-OV-3 ovarian = system: SK-OV-3 ovarian
SN12C renal = system: SN12C renal
SNB-19 CNS = system: SNB-19 CNS
SR leukemia = system: SR leukemia
SW-620 colon = system: SW-620 colon
T-47D breast = system: T-47D breast
TK-10 renal = system: TK-10 renal
U251 CNS = system: U251 CNS
UACC-257 melanoma = system: UACC-257 melanoma
UACC-62 melanoma = system: UACC-62 melanoma
UO-31 renal = system: UO-31 renal
CCRF-CEM leukemia = system: CCRF-CEM leukemia

O=C(O)CC1OCC=C2C[N+]3([O-])CCC45c6ccccc6NC4C1C2CC53 (stereo not drawn)
TGI (786-0 renal): > 100 µM
TGI (A498 renal): > 100 µM
TGI (A549 NSCLC): > 100 µM
TGI (ACHN renal): > 100 µM
TGI (BT-549 breast): > 100 µM
TGI (CAKI-1 renal): > 100 µM
TGI (COLO 205 colon): > 100 µM
TGI (DU-145 prostate): > 100 µM
TGI (EKVX NSCLC): > 100 µM
TGI (HCT-116 colon): > 100 µM
TGI (HCT-15 colon): > 100 µM
TGI (HL-60(TB) leukemia): > 100 µM
TGI (HOP-62 NSCLC): > 100 µM
TGI (HOP-92 NSCLC): > 100 µM
TGI (HS 578T breast): > 100 µM
TGI (HT29 colon): > 100 µM
TGI (IGROV1 ovarian): > 100 µM
TGI (K-562 leukemia): > 100 µM
TGI (KM12 colon): > 100 µM
TGI (LOX IMVI melanoma): > 100 µM
TGI (M14 melanoma): > 100 µM
TGI (MALME-3M melanoma): > 100 µM
TGI (MCF7 breast): > 100 µM
TGI (MDA-MB-231 breast): > 100 µM
TGI (MDA-MB-435): > 100 µM
TGI (MDA-N): > 100 µM
TGI (MOLT-4 leukemia): > 100 µM
TGI (NCI-H226 lung): > 100 µM
TGI (NCI-H23 lung): > 100 µM
TGI (NCI-H460 lung): > 100 µM
TGI (NCI-H522 lung): > 100 µM
TGI (NCI/ADR-RES ovarian): > 100 µM
TGI (OVCAR-3 ovarian): > 100 µM
TGI (OVCAR-4 ovarian): > 100 µM
TGI (OVCAR-5 ovarian): > 100 µM
TGI (OVCAR-8 ovarian): > 100 µM
TGI (PC-3 prostate): > 100 µM
TGI (RPMI-8226 leukemia): > 100 µM
TGI (RXF 393 renal): > 100 µM
TGI (SF-268 CNS): > 100 µM
TGI (SF-295 CNS): > 100 µM
TGI (SF-539 CNS): > 100 µM
TGI (SK-MEL-2 melanoma): 34.2 µM
TGI (SK-MEL-28 melanoma): > 100 µM
TGI (SK-MEL-5 melanoma): > 100 µM
TGI (SK-OV-3 ovarian): > 100 µM
TGI (SN12C renal): > 100 µM
TGI (SNB-19 CNS): > 100 µM
TGI (SR leukemia): > 100 µM
TGI (SW-620 colon): > 100 µM
TGI (T-47D breast): > 100 µM
TGI (TK-10 renal): > 100 µM
TGI (U251 CNS): > 100 µM
TGI (UACC-257 melanoma): > 100 µM
TGI (UACC-62 melanoma): > 100 µM
TGI (UO-31 renal): > 100 µM

CCCCn1c(C)c(C(=O)CC)c(C(=O)NCCN2CCN(c3ccccc3Cl)CC2)c1C
TGI (786-0 renal): 32.5 µM
TGI (A498 renal): 32.3 µM
TGI (A549 NSCLC): 32.9 µM
TGI (ACHN renal): 30.2 µM
TGI (BT-549 breast): 30.3 µM
TGI (CAKI-1 renal): 32.3 µM
TGI (CCRF-CEM leukemia): > 100 µM
TGI (COLO 205 colon): 28.4 µM
TGI (DU-145 prostate): 35.4 µM
TGI (EKVX NSCLC): 33.1 µM
TGI (HCT-116 colon): 27.7 µM
TGI (HCT-15 colon): 31.6 µM
TGI (HL-60(TB) leukemia): 49.5 µM
TGI (HOP-62 NSCLC): 40.6 µM
TGI (HOP-92 NSCLC): 27.7 µM
TGI (HS 578T breast): 58.1 µM
TGI (HT29 colon): 29.2 µM
TGI (IGROV1 ovarian): 30.9 µM
TGI (K-562 leukemia): > 100 µM
TGI (KM12 colon): 37.5 µM
TGI (LOX IMVI melanoma): 35.6 µM
TGI (M14 melanoma): 33.5 µM
TGI (MALME-3M melanoma): 34.4 µM
TGI (MCF7 breast): 36.2 µM
TGI (MDA-MB-231 breast): 33.8 µM
TGI (MDA-MB-435): 36.4 µM
TGI (MDA-N): 31 µM
TGI (MOLT-4 leukemia): 50.1 µM
TGI (NCI-H226 lung): 37.8 µM
TGI (NCI-H23 lung): 30.5 µM
TGI (NCI-H460 lung): 28.9 µM
TGI (NCI-H522 lung): 33.3 µM
TGI (NCI/ADR-RES ovarian): 34.3 µM
TGI (OVCAR-3 ovarian): 48.1 µM
TGI (OVCAR-4 ovarian): 34.6 µM
TGI (OVCAR-5 ovarian): 33.3 µM
TGI (OVCAR-8 ovarian): 35.8 µM
TGI (PC-3 prostate): 31.1 µM
TGI (RPMI-8226 leukemia): 81.8 µM
TGI (RXF 393 renal): 39.4 µM
TGI (SF-268 CNS): 37.7 µM
TGI (SF-295 CNS): 34.6 µM
TGI (SF-539 CNS): 34.9 µM
TGI (SK-MEL-2 melanoma): 32.1 µM
TGI (SK-MEL-28 melanoma): 48.2 µM
TGI (SK-MEL-5 melanoma): 28.7 µM
TGI (SK-OV-3 ovarian): 35.7 µM
TGI (SN12C renal): 30.9 µM
TGI (SNB-19 CNS): 31.3 µM
TGI (SR leukemia): 60.1 µM
TGI (SW-620 colon): > 100 µM
TGI (T-47D breast): 51.2 µM
TGI (TK-10 renal): 33.9 µM
TGI (U251 CNS): 31.3 µM
TGI (UACC-257 melanoma): 26.3 µM
TGI (UACC-62 melanoma): 29.9 µM
TGI (UO-31 renal): 27.1 µM
